From patent US11254663B2 (BRISTOL-MYERS SQUIBB COMPANY, priority 2019, dated 2022)

Test system: not given
Assay: not given
Conditions: patients with NASH, 72-week clinical trial; cited from earlier work

Row | SMILES | hepatic steatosis, lobular inflammation, hepatocyte ballooning, and fibrosis as assessed by histological analyses of liver biopsies
1 | CC[C@H]1[C@@H](O)[C@@H]2[C@H](CC[C@]3(C)[C@@H]([C@H](C)CCC(=O)O)CC[C@@H]23)[C@@]2(C)CC[C@@H](O)C[C@@H]12 [OCA, obeticholic acid] | statistically significantly improved hepatic steatosis, lobular inflammation, hepatocyte ballooning, and fibrosis

Test system: not given
Assay: not given
Conditions: T2DM patients with NAFLD, 6-week clinical trial; cited from earlier work

Row | SMILES | body weight | insulin sensitivity
2 | CC[C@H]1[C@@H](O)[C@@H]2[C@H](CC[C@]3(C)[C@@H]([C@H](C)CCC(=O)O)CC[C@@H]23)[C@@]2(C)CC[C@@H](O)C[C@@H]12 [OCA, obeticholic acid] | reduced body weight | statistically significantly improved insulin sensitivity

Biological target: FXR (Homo sapiens (Human), UniProt Q96RI1)
Sequence (Q96RI1 262-486): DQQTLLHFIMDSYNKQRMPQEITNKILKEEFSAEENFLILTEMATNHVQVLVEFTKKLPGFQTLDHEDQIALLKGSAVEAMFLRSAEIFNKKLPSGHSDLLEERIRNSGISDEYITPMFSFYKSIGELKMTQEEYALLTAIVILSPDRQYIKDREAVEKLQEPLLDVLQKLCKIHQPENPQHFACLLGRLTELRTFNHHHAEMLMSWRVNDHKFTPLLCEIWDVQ
Assay: FXR EC50 (FXR agonist potency reported with each Example)
Type: cell-based
Conditions: not given

Row | SMILES | EC50 [nM]
3 | O=C(N(CC12CCC(c3nc(C4CC4)no3)(CC1)OC2)c1cccc(-c2noc(C(F)F)n2)c1)C12CC(F)(C1)C2 [Example 204, N-((1-(3-cyclopropyl-1,2,4-oxadiazol-5-yl)-2-oxabicyclo[2.2.2]octan-4-yl)methyl)-N-(3-(5-(difluoromethyl)-1,2,4-oxadiazol-3-yl)phenyl)-3-fluorobicyclo[1.1.1]pentane-1-carboxamide] | 371
4 | Cn1nc(C2CC2)cc1C12CCC(CN(C(=O)C34CC(F)(C3)C4)c3cncc(-c4nc(C5CC5)no4)c3)(CC1)CC2 [Example 205, N-(5-(3-cyclopropyl-1,2,4-oxadiazol-5-yl)pyridin-3-yl)-N-((4-(3-cyclopropyl-1-methyl-1H-pyrazol-5-yl)bicyclo[2.2.2]octan-1-yl)methyl)-3-fluorobicyclo[1.1.1]pentane-1-carboxamide] | 218
5 | CC(C)(C)c1nc(C23CCC(CN(C(=O)C45CC(F)(C4)C5)c4cncc(-c5nc(C6CC6)no5)c4)(CC2)CC3)no1 [Example 206, N-((4-(5-(tert-butyl)-1,2,4-oxadiazol-3-yl)bicyclo[2.2.2]octan-1-yl)methyl)-N-(5-(3-cyclopropyl-1,2,4-oxadiazol-5-yl)pyridin-3-yl)-3-fluorobicyclo[1.1.1]pentane-1-carboxamide] | 49
6 | O=C(N(CC12CCC(c3noc(C4(C(F)(F)F)CC4)n3)(CC1)CC2)c1cccc(-c2cn[nH]c2)c1)C12CC(F)(C1)C2 [Example 209, N-(3-(1H-pyrazol-4-yl)phenyl)-3-fluoro-N-((4-(5-(1-(trifluoromethyl)cyclopropyl)-1,2,4-oxadiazol-3-yl)bicyclo[2.2.2]octan-1-yl)methyl)bicyclo[1.1.1]pentane-1-carboxamide] | 152
7 | CC(C)(C)c1nc(C23CCC(CN(C(=O)C45CC(F)(C4)C5)c4cc(-c5nc(C6CC6)no5)ccn4)(CC2)CC3)no1 [Example 210, N-((4-(5-(tert-butyl)-1,2,4-oxadiazol-3-yl)bicyclo[2.2.2]octan-1-yl)methyl)-N-(4-(3-cyclopropyl-1,2,4-oxadiazol-5-yl)pyridin-2-yl)-3-fluorobicyclo[1.1.1]pentane-1-carboxamide] | 48
8 | Cn1nc(-c2cccc(N(CC34CCC(c5noc(C(C)(C)C)n5)(CC3)CC4)C(=O)C34CC(F)(C3)C4)c2)cc1C(C)(C)C [Example 214, N-((4-(5-(tert-butyl)-1,2,4-oxadiazol-3-yl)bicyclo[2.2.2]octan-1-yl)methyl)-N-(3-(5-(tert-butyl)-1-methyl-1H-pyrazol-3-yl)phenyl)-3-fluorobicyclo[1.1.1]pentane-1-carboxamide] | 89
9 | O=C(N(CC12CCC(c3nc(C4CC4)no3)(CC1)CC2)c1cccc(-n2cc(C3CC3)nn2)c1)C12CC(F)(C1)C2 [Example 219, N-((4-(3-cyclopropyl-1,2,4-oxadiazol-5-yl)bicyclo[2.2.2]octan-1-yl)methyl)-N-(3-(4-cyclopropyl-1H-1,2,3-triazol-1-yl)phenyl)-3-fluorobicyclo[1.1.1]pentane-1-carboxamide] | 98.4
10 | COc1cccc(-c2cccc(N(CC34CCC(c5nc(C)no5)(CC3)CC4)C(=O)C3CC(F)(F)C3)c2)c1 [Example 220, 3,3-Difluoro-N-(3′-methoxy-[1,1′-biphenyl]-3-yl)-N-((4-(3-methyl-1,2,4-oxadiazol-5-yl)bicyclo[2.2.2]octan-1-yl)methyl)cyclobutane-1-carboxamide] | 547
11 | COc1cccc(-c2cccc(N(CC34CCC(c5nc(C)no5)(CC3)CC4)C(=O)C34CC(F)(C3)C4)c2)c1 [Example 221, 3-fluoro-N-(3′-methoxy-[1,1′-biphenyl]-3-yl)-N-((4-(3-methyl-1,2,4-oxadiazol-5-yl)bicyclo[2.2.2]octan-1-yl)methyl)bicyclo[1.1.1]pentane-1-carboxamide] | 506
12 | COc1cc(-c2cccc(N(CC34CCC(c5ccc(C(C)(C)C#N)cc5)(CC3)OC4)C(=O)C3CCC3)c2)ccn1 [Example 223, N-((1-(4-(2-cyanopropan-2-yl)phenyl)-2-oxabicyclo[2.2.2]octan-4-yl)methyl)-N-(3-(2-methoxypyridin-4-yl)phenyl)cyclobutanecarboxamide] | 313
13 | COc1cc(-c2cccc(N(CC34CCC(c5ccc(C(C)(C)C#N)cc5)(CC3)OC4)C(=O)C3CCCC3)c2)ccn1 [Example 224, N-((1-(4-(2-cyanopropan-2-yl)phenyl)-2-oxabicyclo[2.2.2]octan-4-yl)methyl)-N-(3-(2-methoxypyridin-4-yl)phenyl)cyclopentanecarboxamide] | 894
14 | CCOc1cc(-c2cccc(N(CC34CCC(c5nc(C6CC6)no5)(CC3)CC4)C(=O)C34CC(F)(C3)C4)c2)ccn1 [Example 226, N-((4-(3-cyclopropyl-1,2,4-oxadiazol-5-yl)bicyclo[2.2.2]octan-1-yl)methyl)-N-(3-(2-ethoxypyridin-4-yl)phenyl)-3-fluorobicyclo[1.1.1]pentane-1-carboxamide] | 219
15 | COc1cc(-c2cccc(N(CC34CCC(c5nc(C6CC6)no5)(CC3)CC4)C(=O)C34CC(F)(C3)C4)c2)ccn1 [Example 229, N-((4-(3-cyclopropyl-1,2,4-oxadiazol-5-yl)bicyclo[2.2.2]octan-1-yl)methyl)-3-fluoro-N-(3-(2-methoxypyridin-4-yl)phenyl)bicyclo[1.1.1]pentane-1-carboxamide] | 154

Results, then the compound that gave them:

Row | EC50 [nM] | SMILES
16 | 618 | CC(C)(C)c1noc(C23CCC(CN(C(=O)C45CC(F)(C4)C5)c4cccc(-c5cnn(S(=O)(=O)C6CC6)c5)c4)(CC2)OC3)n1 [Example 208, N-((4-(3-(tert-butyl)-1,2,4-oxadiazol-5-yl)-2-oxabicyclo[2.2.2]octan-1-yl)methyl)-N-(3-(1-(cyclopropylsulfonyl)-1H-pyrazol-4-yl)phenyl)-3-fluorobicyclo[1.1.1]pentane-1-carboxamide]
17 | 571 | CC(C)(C)c1noc(C23CCC(CN(C(=O)C45CC(F)(C4)C5)c4cncc(-c5nc(C6CC6)no5)c4)(CC2)CC3)n1 [Example 207, N-((4-(3-(tert-butyl)-1,2,4-oxadiazol-5-yl)bicyclo[2.2.2]octan-1-yl)methyl)-N-(5-(3-cyclopropyl-1,2,4-oxadiazol-5-yl)pyridin-3-yl)-3-fluorobicyclo[1.1.1]pentane-1-carboxamide]
18 | 442 | COc1cc(-c2cccc(N(CC34CCC(c5nc(C)no5)(CC3)CC4)C(=O)C34CC(F)(C3)C4)c2)ccn1 [Example 228, 3-fluoro-N-(3-(2-methoxypyridin-4-yl)phenyl)-N-((4-(3-methyl-1,2,4-oxadiazol-5-yl)bicyclo[2.2.2]octan-1-yl)methyl)bicyclo[1.1.1]pentane-1-carboxamide]
19 | 377 | COc1cc(-c2cccc(N(CC34CCC(c5nc(C6CCOCC6)no5)(CC3)CC4)C(=O)C34CC(F)(C3)C4)c2)ccn1 [Example 227, 3-Fluoro-N-(3-(2-methoxypyridin-4-yl)phenyl)-N-((4-(3-(tetrahydro-2H-pyran-4-yl)-1,2,4-oxadiazol-5-yl)bicyclo[2.2.2]octan-1-yl)methyl)bicyclo[1.1.1]pentane-1-carboxamide]
20 | 285 | COc1cc(-c2cccc(N(CC34CCC(c5ccc(C(C)(C)C#N)cc5)(CC3)OC4)C(=O)C34CC(F)(C3)C4)c2)ccn1 [Example 222, N-((1-(4-(2-cyanopropan-2-yl)phenyl)-2-oxabicyclo[2.2.2]octan-4-yl)methyl)-3-fluoro-N-(3-(2-methoxypyridin-4-yl)phenyl)bicyclo[1.1.1]pentane-1-carboxamide]
21 | 241 | CCOc1ccnc(-c2cccc(N(CC34CCC(c5nc(C6CC6)no5)(CC3)CC4)C(=O)C34CC(F)(C3)C4)c2)c1 [Example 225, N-((4-(3-cyclopropyl-1,2,4-oxadiazol-5-yl)bicyclo[2.2.2]octan-1-yl)methyl)-N-(3-(4-ethoxypyridin-2-yl)phenyl)-3-fluorobicyclo[1.1.1]pentane-1-carboxamide]
22 | 198 | Cn1nc(C(C)(C)C)cc1-c1cccc(N(CC23CCC(c4noc(C(C)(C)C)n4)(CC2)CC3)C(=O)C23CC(F)(C2)C3)c1 [Example 213, N-((4-(5-(tert-butyl)-1,2,4-oxadiazol-3-yl)bicyclo[2.2.2]octan-1-yl)methyl)-N-(3-(3-(tert-butyl)-1-methyl-1H-pyrazol-5-yl)phenyl)-3-fluorobicyclo[1.1.1]pentane-1-carboxamide]
23 | 74 | O=C(N(CC12CCC(c3nc(C4CC4)no3)(CC1)OC2)c1cccc(-c2noc(C3CC3)n2)c1)C12CC(F)(C1)C2 [Example 203]
24 | 17 | CC(C)(C)c1nc(C23CCC(CN(C(=O)C45CC(F)(C4)C5)c4cc(-c5cn[nH]c5)ccn4)(CC2)CC3)no1 [Example 211, N-(4-(1H-pyrazol-4-yl)pyridin-2-yl)-N-((4-(5-(tert-butyl)-1,2,4-oxadiazol-3-yl)bicyclo[2.2.2]octan-1-yl)methyl)-3-fluorobicyclo[1.1.1]pentane-1-carboxamide]
25 | 11 | CC(C)(C)c1nc(C23CCC(CN(C(=O)C45CC(F)(C4)C5)c4cc(-c5cnn(C(F)F)c5)ccn4)(CC2)CC3)no1 [Example 212, N-((4-(5-(tert-butyl)-1,2,4-oxadiazol-3-yl)bicyclo[2.2.2]octan-1-yl)methyl)-N-(4-(1-(difluoromethyl)-1H-pyrazol-4-yl)pyridin-2-yl)-3-fluorobicyclo[1.1.1]pentane-1-carboxamide]
